Experimental data taken from patent publication US4097597A, “Dibenzo[b,e][1,4]diazepines” (Abbott Laboratories, priority 1977, dated 1978).

How the values were obtained:
[1] = system: Methamphetamine induced hyperactivity; assay: Antagonism of Methamphetamine induced hyperactivity in rats; type: in vivo, Male Long-Evans black hooded rats; set-up: key: (+): potentiation of Methamphetamine; (-): antagonism of Methamphetamine; settings: sign printed with oral ED50; rat, oral 5, 20 and 80 mg./kg.
Description: Male Long-Evans black hooded rats, weighing between 100 and 150 grams, were administered the test drugs at oral doses of 5, 20 and 80 mg./kg. 1 hour prior to the administration of Methamphetamine at an intraperitoneal dose of 1 mg./kg. Three animals were tested at each dose level. The rats were placed in individual activity chambers equipped with photocells (Lehigh Valley, Model 1497). Antagonism of Methamphetamine induced hyperactivity was recorded as digital counts received from the photocells at one and two hour intervals. Placebo controls received a volume dose of the 0.5 carboxymethylcellulose vehicle. The data were evaluated by a one-way analysis of variance computer program. ED50 's were calculated by the method of Litchfield and Wilcoxon (J. Pharmacol. Exp. Therap.; 96:99, 1949).
In the results, a (+) indicates a potentiation of Methamphetamine and a (-) is antagonism of Methamphetamine.

[2] = system: brain level of homovanillic acid (HVA); assay: Effect of Drug Compounds on Brain Level of Homovanillic Acid (HVA); type: in vivo, male Long Evans rats; settings: ratio to HVA level in control group (1.0); rat brain minus cerebella, 0.15 mmoles/kg i.p. standard dose, 2 or 3 hours; only ratios greater than 1.6 considered of practical significance
Description: In testing for the effectiveness of the present drug compounds on the brain level of homovanillic acid (HVA), the drugs were administered intraperitoneally to male Long Evans rats (Simonsen) usually as aqueous solutions but in certain cases as suspensions in 0.5% methocel in 0.9% saline. The standard testing dose was 0.15 mmoles/kg. body weight. The test and control groups consisted of 3-5 and 5 animals, respectively. The analyses were performed on brains (minus cerebella) removed 2 or 3 hours later. In the analysis, standard extraction and fluorimetric methods were used.
In the results, the level of brain HVA in each test group is expressed as a ratio to the level of HVA in an accompanying control group that was injected with either a 0.9% saline or a 0.5% solution of methocel. Even though ratios of […] 1.3 usually have statistical significance, only ratios greater than 1.6 are considered to be of practical significance for the pharmacological classification of drugs.

Row | SMILES | direction of effect on Methamphetamine [1] | HVA Ratio [2]
1 | CCCCCCCCCCCCCCCC(=O)OCCOCCN1CCN(C2=Nc3cc(Cl)ccc3N(C(=O)CCCCCCCCCCCCCCC)c3ccccc32)CC1 [X, 8-Chloro-11-[4-2-(2-palmitoyloxyethoxy)-ethylpiperazinyl]-5-palmitoyl-dibenzo[b,e][1,4]diazepine] | (-) | 
2 | CCCCCCCCCCCCCCCC(=O)OCCOCCN1CCN(C2=Nc3cc(Cl)ccc3Nc3ccccc32)CC1 [IX, 8-Chloro-11-[4-2-(2-palmitoyloxyethoxy)-ethylpiperazinyl]-5H-dibenzo[b,e][1,4]diazepine] | (-) | 1.0
3 | COCCOCCN1CCN(C2=Nc3cc(Cl)ccc3Nc3ccccc32)CC1 [VII, 8-Chloro-11[4-2-(2-methoxyethoxy)-ethylpiperazine]-5H-dibenzo[b,e][1,4]diazepine] | (-) | 3.1
4 | OCCOCCN1CCN(C2=Nc3cc(Cl)ccc3Nc3ccccc32)CC1 [VI, 8-Chloro-11-[4-2-(2-hydroxyethoxy)ethyl-1-piperazinyl]-5H-dibenzo[b,e][1,4]diazepine] | (-) | 2.8
5 | OCCOCCOCCN1CCN(C2=Nc3cc(Cl)ccc3Nc3ccccc32)CC1 [VIII, 8-Chloro-11-[4-2-(2-hydroxyethoxyethoxy)-ethylpiperazinyl]-5H-dibenzo[b,e][1,4]diazepine] | (-) | 1.4
